The compounds below were run against C-Raf FL (full length CRAF with Y340E and Y341E activating mutations, co-expressed with h14-3-3 zeta) (Homo sapiens (Human), UniProt P04049, Y340E/Y341E) (assay: In vitro Raf activity determination, AlphaScreen p-MEK readout, c-Raf (C-Raf FL)). Details: c-Raf approximately 4 nM, ATP 1 μM, pre-incubation 60 minutes, reaction 1 hour.
Type: biochemical
Description: Sf9 cells co-expressing both proteins were lysed and subjected to immobilized nickel chromatography and eluted with Imidazole. A second column (StrepII binding column) was used and eluted with desthiobiotin. Protein Tags were removed using Prescission enzyme and the protein was further purified using a flowthrough step to remove tags.
C-Raf TR refers to a truncated C-Raf protein, a Δ1-324 deletion mutant. C-Raf FL refers to the full-length C-Raf protein.
Full length MEK1 with an inactivating K97R ATP binding site mutation is utilized as a RAF substrate. The MEK1 cDNA was subcloned with an N-terminal (his)6 tag into a vector for E. Coli expression. The MEK1 substrate was purified from E. Coli lysate by nickel affinity chromatography followed by anion exchange. The final MEK1 preparation was biotinylated (Pierce EZ-Link Sulfo-NHS-LC-Biotin) and concentrated.
Assay Materials: Assay buffer is 50 mM Tris, pH 7.5, 15 mM MgCl2, 0.01% Bovine Serum Albumin (BSA) and 1 mM dithiothreitol (DTT); Stop buffer is 60 mM ethylenediaminetetraacetic acid (EDTA) and 0.01% Tween® 20; b-Raf (V600E), active; biotinylated Mek, kinase dead; Alpha Screen detection kit (available from PerkinElmer™, #6760617R); Anti phospho-MEK1/2 (available from Cell Signaling Technology, Inc. #9121); 384 well low volume assay plates (White Greiner® plates).
Assay conditions: b-Raf (V600E) approximately 4 pM; c-Raf approximately 4 nM; biotinylated Mek, kinase dead approximately 10 nM; ATP 10 μM for BRAF (V600E) and 1 μM for CRAF; Pre-incubation time with compounds 60 minutes at room temperature; Reaction time 1 or 3 hours at room temperature.
Assay protocol: Raf and biotinylated Mek (kinase dead) were combined at 2× final concentrations in assay buffer (50 mM Tris, pH 7.5, 15 mM MgCl2, 0.01% BSA and 1 mM DTT) and dispensed […] per well in assay plates (Greiner white 384 well assay plates #781207) containing […] of 40× of a Raf kinase inhibitor test compound diluted in 100% DMSO. The plate was incubated for 60 minutes at room temperature. The Raf kinase activity reaction was started by the addition of […] per well of 2×ATP diluted in assay buffer. After 3 hours (b-Raf(V600E)) or 1 hour (c-Raf). The reactions were stopped and the phosphorylated product was measured using a rabbit anti-p-MEK (Cell Signaling, #9121) antibody and the Alpha Screen IgG (ProteinA) detection Kit (PerkinElmer #6760617R), by the addition of […] to the well of a mixture of the antibody (1:2000 dilution) and detection beads (1:2000 dilution of both beads) in Stop/bead buffer (25 mM EDTA, 50 mM Tris, pH 7.5, 0.01% Tween20). The additions were carried out under dark conditions to protect the detection beads from light. A lid was placed on top of the plate and incubated for 1 hour at room temperature, after which the luminescence was read on a PerkinElmer Envision instrument.

C-Raf FL (full length CRAF with Y340E and Y341E activating mutations, co-expressed with h14-3-3 zeta), sequence (P04049 whole entry Y340E/Y341E): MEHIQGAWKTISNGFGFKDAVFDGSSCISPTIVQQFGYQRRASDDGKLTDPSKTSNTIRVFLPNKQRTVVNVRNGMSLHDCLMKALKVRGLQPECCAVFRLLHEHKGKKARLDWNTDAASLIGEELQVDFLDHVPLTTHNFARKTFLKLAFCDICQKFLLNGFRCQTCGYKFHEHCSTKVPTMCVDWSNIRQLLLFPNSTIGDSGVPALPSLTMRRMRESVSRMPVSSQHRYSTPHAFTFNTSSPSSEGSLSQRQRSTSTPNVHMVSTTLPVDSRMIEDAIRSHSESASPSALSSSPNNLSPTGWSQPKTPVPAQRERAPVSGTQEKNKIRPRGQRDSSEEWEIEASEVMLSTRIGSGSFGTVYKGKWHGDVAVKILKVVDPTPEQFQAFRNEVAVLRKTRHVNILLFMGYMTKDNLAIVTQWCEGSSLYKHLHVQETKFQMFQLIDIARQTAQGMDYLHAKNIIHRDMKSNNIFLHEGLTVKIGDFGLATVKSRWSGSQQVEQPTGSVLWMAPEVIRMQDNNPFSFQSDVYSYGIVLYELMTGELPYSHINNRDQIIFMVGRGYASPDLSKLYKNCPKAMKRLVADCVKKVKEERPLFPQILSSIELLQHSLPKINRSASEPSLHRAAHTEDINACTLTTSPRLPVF
C-Raf FL (full length CRAF with Y340E and Y341E activating mutations, co-expressed with h14-3-3 zeta), sequence (P63104 whole entry partner): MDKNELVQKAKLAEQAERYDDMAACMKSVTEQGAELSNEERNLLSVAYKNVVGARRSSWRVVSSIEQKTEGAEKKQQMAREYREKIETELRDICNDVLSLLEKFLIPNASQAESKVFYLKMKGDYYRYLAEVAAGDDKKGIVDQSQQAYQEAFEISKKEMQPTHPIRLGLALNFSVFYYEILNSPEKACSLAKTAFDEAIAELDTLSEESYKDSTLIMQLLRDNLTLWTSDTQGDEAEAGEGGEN

SMILES | IC50 [nM]
CCNC(=O)C1Cc2ccc(-c3cc(NC(=O)c4ccnc(C(F)(F)F)c4)ccc3C)cc2N2CCOCC12 (racemic) [Example 73, (rac)-N-ethyl-9-(2-methyl-5-(2-(trifluoromethyl)isonicotinamido)phenyl)-1,2,4,4a,5,6-hexahydro-[1,4]oxazino[4,3-a]quinoline-5-carboxamide] | 0.2
CCNC(=O)C1Cc2ccc(-c3cc(NC(=O)c4ccnc(C(C)(F)F)c4)ccc3C)cc2N2CCOCC12 (racemic) [Example 74, (rac)-9-(5-(2-(1,1-difluoroethyl)isonicotinamido)-2-methylphenyl)-N-ethyl-1,2,4,4a,5,6-hexahydro-[1,4]oxazino[4,3-a]quinoline-5-carboxamide] | 0.28
CCNC(=O)C1Cc2ccc(-c3cc(NC(=O)c4cccc(C(F)(F)F)c4)cnc3C)cc2N2CCOCC12 (racemic) [Example 75, (rac)-N-ethyl-9-(2-methyl-5-(3-(trifluoromethyl)benzamido)pyridin-3-yl)-1,2,4,4a,5,6-hexahydro-[1,4]oxazino[4,3-a]quinoline-5-carboxamide] | 0.48
Cc1ccc(NC(=O)c2ccnc(C(C)(F)F)c2)cc1-c1ccc2c(c1)N1CCOCC1C(F)(CO)C2 (racemic) [Example 78, (rac)-2-(1,1-difluoroethyl)-N-(3-(5-fluoro-5-(hydroxymethyl)-1,2,4,4a,5,6-hexahydro-[1,4]oxazino[4,3-a]quinolin-9-yl)-4-methylphenyl)isonicotinamide] | 0.02
Cc1ncc(NC(=O)c2ccnc(C(C)(F)F)c2)cc1-c1ccc2c(c1)N1CCOCC1C(F)(CO)C2 (racemic) [Example 79, (rac)-2-(1,1-difluoroethyl)-N-(5-(5-fluoro-5-(hydroxymethyl)-1,2,4,4a,5,6-hexahydro-[1,4]oxazino[4,3-a]quinolin-9-yl)-6-methylpyridin-3-yl)isonicotinamide] | 0.038
Cc1ncc(NC(=O)c2ccnc(C(C)(F)F)c2)cc1-c1ccc2c(c1)N1CCOC[C@H]1[C@](C)(C#N)C2 (racemic) [Example 87, (rac)-N-(5-(5-cyano-5-methyl-1,2,4,4a,5,6-hexahydro-[1,4]oxazino[4,3-a]quinolin-9-yl)-6-methylpyridin-3-yl)-2-(1,1-difluoroethyl)isonicotinamide] | 0.022
Cc1ccc(NC(=O)c2ccnc(C(C)(F)F)c2)cc1-c1ccc2c(c1)N1CCOC[C@H]1[C@@](C)(C#N)C2 (racemic) [Example 88, (rac)-N-(3-(5-cyano-5-methyl-1,2,4,4a,5,6-hexahydro-[1,4]oxazino[4,3-a]quinolin-9-yl)-4-methylphenyl)-2-(1,1-difluoroethyl)isonictinamide] | 0.032
Cc1ncc(NC(=O)c2ccnc(C(C)(F)F)c2)cc1-c1ccc2c(c1)N1CCOC[C@H]1[C@@](C)(C#N)C2 (racemic) [Example 89, (rac)-N-(5-(5-cyano-5-methyl-1,2,4,4a,5,6-hexahydro-[1,4]oxazino[4,3-a]quinolin-9-yl)-6-methylpyridin-3-yl)-2-(1,1-difluoroethyl)isonicotinamide] | 0.036
Cc1ccc(NC(=O)c2ccnc(C(C)(F)F)c2)cc1-c1ccc2c(c1)N1CCOC[C@H]1[C@H](C#N)C2 (racemic) [Example 90, (rac)-N-(3-(5-cyano-1,2,4,4a,5,6-hexahydro-[1,4]oxazino[4,3-a]quinolin-9-yl)-4-methylphenyl)-2-(1,1-difluoroethyl)isonicotinamid] | 0.023
Cc1ncc(NC(=O)c2ccnc(C(C)(F)F)c2)cc1-c1ccc2c(c1)N1CCOC[C@H]1[C@H](C#N)C2 (racemic) [Example 91, (rac)-N-(5-(5-cyano-1,2,4,4a,5,6-hexahydro-[1,4]oxazino[4,3-a]quinolin-9-yl)-6-methylpyridin-3-yl)-2-(1,1-difluoroethyl)isonicotinamide] | 0.076
Cc1ccc(NC(=O)c2ccnc(C(C)(F)F)c2)cc1-c1ccc2c(c1)N1CCOC[C@H]1[C@](C)(N)C2 (racemic) [Example 92, (rac)-(syn)-N-(3-(5-amino-5-methyl-1,2,4,4a,5,6-hexahydro-[1,4]oxazino[4,3-a]quinolin-9-yl)-4-methylphenyl)-2-(1,1-difluoroethyl)isonicotinamide] | 0.61
Cc1ccc(NC(=O)c2ccnc(C(C)(F)F)c2)cc1-c1ccc2c(c1)N1CCOC[C@H]1[C@@](C)(N)C2 (racemic) [Example 93, (rac)-(anti)-N-(3-(5-amino-5-methyl-1,2,4,4a,5,6-hexahydro-[1,4]oxazino[4,3-a]quinolin-9-yl)-4-methylphenyl)-2-(1,1-difluoroethyl)isonicotinamide] | 0.025
Cc1ccc(NC(=O)c2ccnc(C(F)(F)F)c2)cc1-c1cc2n(c(=O)c1)CCC1COCCN21 (racemic) [Example 94, (rac)-N-(4-methyl-3-(8-oxo-2,4,4a,5,6,8-hexahydro-1H-pyrido[2′,1′:2,3]pyrimido[6,1-c][1,4]oxazin-10-yl)phenyl)-2-(trifluoromethyl)isonicotinamide] | 0.019
Cc1ncc(NC(=O)c2ccnc(C(C)(F)F)c2)cc1-c1ccc2c(c1)N1CCOCCC1CC2O (racemic) [Example 96, (rac)-2-(1,1-difluoroethyl)-N-(5-(7-hydroxy-1,2,5,5a,6,7-hexahydro-4H-[1,4]oxazepino[4,5-a]quinolin-10-yl)-6-methylpyridin-3-yl)isonicotinamide] | 0.053
Cc1ccc(NC(=O)c2ccnc(C(C)(F)F)c2)cc1-c1ccc2c(c1)N1CCOC[C@@H]1[C@@H](C(=O)O)C2 (racemic) [Example 100, (rac)-(cis)-9-(5-(2-(1,1-difluoroethyl)isonicotinamido)-2-methylphenyl)-1,2,4,4a,5,6-hexahydro-[1,4]oxazino[4,3-a]quinoline-5-carboxylic Acid] | 0.037
Cc1ccc(NC(=O)c2ccnc(C(F)(F)F)c2)cc1-c1cnc2c(c1)N1CCOC[C@H]1C[C@@H]2O (racemic) [Example 101, rac-cis-N-(3-(6-hydroxy-1,2,4,4a,5,6-hexahydro-[1,4]oxazino[4,3-a][1,5]naphthyridin-9-yl)-4-methylphenyl)-2-(trifluoromethyl)isonicotinamide] | 0.026
Cc1ncc(NC(=O)c2cccc(C(F)(F)F)c2)cc1-c1cnc2c(c1)N1CCOC[C@H]1C[C@@H]2O (racemic) [Example 104, rac-cis-N-(5-(6-Hydroxy-1,2,4,4a,5,6-hexahydro-[1,4]oxazino[4,3-a][1,5]naphthyridin-9-yl)-6-methylpyridin-3-yl)-3-(trifluoromethyl)benzamide] | 0.044
Cc1ccc(NC(=O)c2ccnc(C(C)(F)F)c2)cc1-c1cnc2c(c1)N1CCOCC1CC2O (racemic) [Example 107, rac-cis-2-(1,1-Difluoroethyl)-N-(3-(6-hydroxy-1,2,4,4a,5,6-hexahydro-[1,4]oxazino[4,3-a][1,5]naphthyridin-n-9-yl)-4-methylphenyl)isonicotinamide] | 0.019
Cc1ccc(NC(=O)c2ccnc(C(F)(F)F)c2)cc1-c1cnc2c(c1)N1CCOCC1CC2=O (racemic) [Example 110, rac-N-(4-methyl-3-(6-oxo-1,2,4,4a,5,6-hexahydro-[1,4]oxazino[4,3-a][1,5]naphthyridin-n-9-yl)phenyl)-2-(trifluoromethyl)isonicotinamide] | 0.002
Cc1ccc(NC(=O)c2ccnc(C(F)(F)F)c2)cc1-c1cnc2c(c1)N1CCOCC1CC2(F)F (racemic) [Example 111, rac-N-(3-(6,6-Difluoro-1,2,4,4a,5,6-hexahydro-[1,4]oxazino[4,3-a][1,5]naphthyridin-9-yl)-4-methylphenyl)-2-(trifluoromethyl)isonicotinamide] | 0.0054
Cc1ccc(NC(=O)c2ccnc(C(F)(F)F)c2)cc1-c1cnc2c(c1)N1CCOCC1C(=O)N2 (racemic) [Example 112, rac-N-(4-Methyl-3-(5-oxo-1,2,4,4a,5,6-hexahydropyrido[2′,3′:5,6]pyrazino[2,1-c][1,4]oxazin-9-yl)phenyl)-2-(trifluoromethyl)isonicotinamide] | < 0.0017

Source: patent US10377770B2 (Novartis AG, priority 2015, dated 2019)
